{"source": "patent US20120270237A9", "about": "“METHODS FOR THE IDENTIFICATION OF KINASE INTERACTING MOLECULES AND FOR THE PURIFICATION OF KINASE PROTEINS” (Cellzone AG, priority 2009, published 2012)", "experiment_in_all_cases": "Kinobeads competition binding, HeLa Placenta lysate mix", "design_in_all_cases": "endogenous in cells", "settings_in_all_cases": "10 μM free compound", "key": {"CaMKK2": {"target": "CaMKK2 (Homo sapiens, UniProt Q96RR4)", "sequence (Q96RR4 whole entry)": "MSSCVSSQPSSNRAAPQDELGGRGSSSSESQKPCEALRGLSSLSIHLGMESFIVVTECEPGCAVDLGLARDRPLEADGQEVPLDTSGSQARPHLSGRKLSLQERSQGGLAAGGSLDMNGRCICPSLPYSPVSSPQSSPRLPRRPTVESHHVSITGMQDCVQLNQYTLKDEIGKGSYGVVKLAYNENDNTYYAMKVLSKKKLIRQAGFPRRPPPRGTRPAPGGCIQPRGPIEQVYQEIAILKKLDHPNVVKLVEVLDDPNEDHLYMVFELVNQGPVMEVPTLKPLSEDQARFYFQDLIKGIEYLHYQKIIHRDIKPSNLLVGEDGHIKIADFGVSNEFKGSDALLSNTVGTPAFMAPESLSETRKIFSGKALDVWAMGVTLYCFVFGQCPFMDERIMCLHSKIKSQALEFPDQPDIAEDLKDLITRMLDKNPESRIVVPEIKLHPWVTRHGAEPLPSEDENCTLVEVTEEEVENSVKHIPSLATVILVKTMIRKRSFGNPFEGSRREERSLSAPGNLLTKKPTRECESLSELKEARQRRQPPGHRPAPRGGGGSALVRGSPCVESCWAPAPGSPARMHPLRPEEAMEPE", "description": "(§1) To one aliquot of cell lysate 10 μM of the free compound (FIG. 3, CZC31326) was added and allowed to bind to proteins in the lysate. Then the affinity matrix with the immobilized compound was added to capture proteins that were not interacting with the previously added free compound. Beads were separated from the lysate and bead bound proteins were eluted in SDS sample buffer and subsequently separated by SDS-Polyacrylamide gel electrophoresis (FIG. 10). Suitable gel bands were cut out and subjected to in-gel proteolytic digestion with trypsin. The second lysate aliquot was processed identically, however no free compound was added (DMSO solvent control). Peptides originating from samples 1 and 2 were labeled with iTRAQ reagents (iTRAQ 114 and iTRAQ 117) and the combined samples were analyzed with a nano-flow liquid chromatography system coupled online to a tandem mass spectrometer (LC-MS/MS) experiment followed by iTRAQ reporter ion quantification in the MS/MS spectra as described in Example 2."}, "GSK3A": {"target": "GSK3A (Homo sapiens, UniProt P49840)", "description": "as §1"}, "IRE1": {"target": "IRE1 (Homo sapiens, UniProt O75460)", "sequence (O75460 19-977)": "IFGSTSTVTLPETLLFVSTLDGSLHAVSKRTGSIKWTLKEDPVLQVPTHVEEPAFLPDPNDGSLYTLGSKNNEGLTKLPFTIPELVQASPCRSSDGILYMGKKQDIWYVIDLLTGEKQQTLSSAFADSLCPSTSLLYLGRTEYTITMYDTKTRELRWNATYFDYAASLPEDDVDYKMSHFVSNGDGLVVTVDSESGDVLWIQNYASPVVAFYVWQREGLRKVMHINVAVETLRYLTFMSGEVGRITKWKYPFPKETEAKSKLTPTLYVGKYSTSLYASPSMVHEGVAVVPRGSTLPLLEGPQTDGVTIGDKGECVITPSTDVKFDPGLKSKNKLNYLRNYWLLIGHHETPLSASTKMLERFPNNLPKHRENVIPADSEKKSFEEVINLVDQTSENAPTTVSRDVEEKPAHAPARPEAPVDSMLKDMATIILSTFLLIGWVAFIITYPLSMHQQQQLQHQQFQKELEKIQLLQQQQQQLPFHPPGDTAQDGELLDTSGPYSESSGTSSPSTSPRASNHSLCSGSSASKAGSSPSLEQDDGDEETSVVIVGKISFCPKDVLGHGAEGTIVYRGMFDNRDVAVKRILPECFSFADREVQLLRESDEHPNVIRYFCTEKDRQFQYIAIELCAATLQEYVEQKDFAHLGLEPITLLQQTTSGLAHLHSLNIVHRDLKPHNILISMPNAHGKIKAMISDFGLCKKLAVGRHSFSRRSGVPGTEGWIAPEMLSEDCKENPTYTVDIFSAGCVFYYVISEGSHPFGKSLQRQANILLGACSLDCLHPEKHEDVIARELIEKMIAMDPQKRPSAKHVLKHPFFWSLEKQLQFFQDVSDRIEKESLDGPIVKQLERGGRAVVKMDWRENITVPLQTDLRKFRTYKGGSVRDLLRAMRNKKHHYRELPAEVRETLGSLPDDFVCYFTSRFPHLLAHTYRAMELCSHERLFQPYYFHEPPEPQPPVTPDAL", "description": "as §1"}, "LRRK2": {"target": "LRRK2 (Homo sapiens, UniProt Q5S007)", "sequence (Q5S007 whole entry)": "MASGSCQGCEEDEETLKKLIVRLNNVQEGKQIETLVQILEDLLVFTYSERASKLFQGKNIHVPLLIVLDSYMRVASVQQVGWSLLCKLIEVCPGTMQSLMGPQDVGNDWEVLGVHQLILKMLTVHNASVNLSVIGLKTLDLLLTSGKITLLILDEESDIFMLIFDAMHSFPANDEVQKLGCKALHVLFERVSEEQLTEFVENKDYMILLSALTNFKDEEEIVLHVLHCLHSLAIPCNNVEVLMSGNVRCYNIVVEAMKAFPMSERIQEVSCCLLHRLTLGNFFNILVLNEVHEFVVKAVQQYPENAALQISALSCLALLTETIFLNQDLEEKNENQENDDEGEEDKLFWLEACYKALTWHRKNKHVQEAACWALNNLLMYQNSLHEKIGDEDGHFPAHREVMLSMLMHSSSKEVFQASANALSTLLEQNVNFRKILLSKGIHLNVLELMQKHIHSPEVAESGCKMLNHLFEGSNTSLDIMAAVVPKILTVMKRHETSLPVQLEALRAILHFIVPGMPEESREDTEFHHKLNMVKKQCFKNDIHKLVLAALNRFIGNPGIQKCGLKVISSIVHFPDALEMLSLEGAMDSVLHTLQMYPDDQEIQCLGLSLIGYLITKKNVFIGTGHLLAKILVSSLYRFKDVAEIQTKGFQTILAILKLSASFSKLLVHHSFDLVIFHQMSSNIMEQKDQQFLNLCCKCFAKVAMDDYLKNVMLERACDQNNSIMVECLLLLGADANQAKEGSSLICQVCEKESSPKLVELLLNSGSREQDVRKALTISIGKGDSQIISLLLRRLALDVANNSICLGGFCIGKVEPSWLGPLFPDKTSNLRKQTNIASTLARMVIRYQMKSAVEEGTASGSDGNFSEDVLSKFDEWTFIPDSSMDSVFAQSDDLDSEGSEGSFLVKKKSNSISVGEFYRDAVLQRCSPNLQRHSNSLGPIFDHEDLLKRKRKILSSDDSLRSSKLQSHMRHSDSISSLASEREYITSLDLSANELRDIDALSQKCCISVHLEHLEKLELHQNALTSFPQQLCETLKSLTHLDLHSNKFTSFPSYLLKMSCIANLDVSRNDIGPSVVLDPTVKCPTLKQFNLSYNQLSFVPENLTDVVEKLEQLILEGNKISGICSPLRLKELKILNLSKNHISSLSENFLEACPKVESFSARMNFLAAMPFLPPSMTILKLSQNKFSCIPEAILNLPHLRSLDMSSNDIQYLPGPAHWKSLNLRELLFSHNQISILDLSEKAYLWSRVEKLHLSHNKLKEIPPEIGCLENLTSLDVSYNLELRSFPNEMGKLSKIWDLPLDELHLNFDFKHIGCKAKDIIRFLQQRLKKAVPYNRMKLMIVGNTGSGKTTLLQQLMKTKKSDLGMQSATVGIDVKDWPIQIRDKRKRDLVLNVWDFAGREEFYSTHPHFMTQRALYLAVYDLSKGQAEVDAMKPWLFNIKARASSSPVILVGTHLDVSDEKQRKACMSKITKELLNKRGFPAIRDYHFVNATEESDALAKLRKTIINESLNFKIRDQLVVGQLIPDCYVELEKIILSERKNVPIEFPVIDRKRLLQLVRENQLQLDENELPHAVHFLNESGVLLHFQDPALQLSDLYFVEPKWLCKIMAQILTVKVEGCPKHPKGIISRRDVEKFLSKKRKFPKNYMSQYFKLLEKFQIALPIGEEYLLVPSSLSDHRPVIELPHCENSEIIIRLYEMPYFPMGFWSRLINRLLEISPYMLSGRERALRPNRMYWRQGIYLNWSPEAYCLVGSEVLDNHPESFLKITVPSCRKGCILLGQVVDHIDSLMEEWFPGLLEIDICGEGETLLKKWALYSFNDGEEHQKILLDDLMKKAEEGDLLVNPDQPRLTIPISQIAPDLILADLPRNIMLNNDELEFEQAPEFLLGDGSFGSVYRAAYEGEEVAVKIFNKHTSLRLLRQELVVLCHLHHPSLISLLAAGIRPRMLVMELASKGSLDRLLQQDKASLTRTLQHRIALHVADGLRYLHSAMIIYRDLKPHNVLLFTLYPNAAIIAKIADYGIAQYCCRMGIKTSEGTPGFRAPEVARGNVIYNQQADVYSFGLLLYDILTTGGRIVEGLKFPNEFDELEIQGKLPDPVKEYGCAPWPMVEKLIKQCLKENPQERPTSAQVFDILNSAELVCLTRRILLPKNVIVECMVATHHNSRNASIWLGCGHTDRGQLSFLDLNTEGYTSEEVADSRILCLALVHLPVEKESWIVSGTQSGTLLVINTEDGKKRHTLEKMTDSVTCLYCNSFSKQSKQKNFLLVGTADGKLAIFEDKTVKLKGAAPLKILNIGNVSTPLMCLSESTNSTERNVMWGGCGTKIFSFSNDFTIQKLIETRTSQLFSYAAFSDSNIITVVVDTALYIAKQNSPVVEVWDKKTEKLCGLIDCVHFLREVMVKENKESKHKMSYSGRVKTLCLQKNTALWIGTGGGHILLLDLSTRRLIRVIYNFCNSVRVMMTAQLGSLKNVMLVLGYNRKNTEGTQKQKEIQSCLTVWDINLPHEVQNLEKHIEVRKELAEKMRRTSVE", "description": "as §1"}, "NEK9": {"target": "T1, NEK9 (Homo sapiens, UniProt Q8TD19)", "T1 sequence (Q8TD19 1-979)": "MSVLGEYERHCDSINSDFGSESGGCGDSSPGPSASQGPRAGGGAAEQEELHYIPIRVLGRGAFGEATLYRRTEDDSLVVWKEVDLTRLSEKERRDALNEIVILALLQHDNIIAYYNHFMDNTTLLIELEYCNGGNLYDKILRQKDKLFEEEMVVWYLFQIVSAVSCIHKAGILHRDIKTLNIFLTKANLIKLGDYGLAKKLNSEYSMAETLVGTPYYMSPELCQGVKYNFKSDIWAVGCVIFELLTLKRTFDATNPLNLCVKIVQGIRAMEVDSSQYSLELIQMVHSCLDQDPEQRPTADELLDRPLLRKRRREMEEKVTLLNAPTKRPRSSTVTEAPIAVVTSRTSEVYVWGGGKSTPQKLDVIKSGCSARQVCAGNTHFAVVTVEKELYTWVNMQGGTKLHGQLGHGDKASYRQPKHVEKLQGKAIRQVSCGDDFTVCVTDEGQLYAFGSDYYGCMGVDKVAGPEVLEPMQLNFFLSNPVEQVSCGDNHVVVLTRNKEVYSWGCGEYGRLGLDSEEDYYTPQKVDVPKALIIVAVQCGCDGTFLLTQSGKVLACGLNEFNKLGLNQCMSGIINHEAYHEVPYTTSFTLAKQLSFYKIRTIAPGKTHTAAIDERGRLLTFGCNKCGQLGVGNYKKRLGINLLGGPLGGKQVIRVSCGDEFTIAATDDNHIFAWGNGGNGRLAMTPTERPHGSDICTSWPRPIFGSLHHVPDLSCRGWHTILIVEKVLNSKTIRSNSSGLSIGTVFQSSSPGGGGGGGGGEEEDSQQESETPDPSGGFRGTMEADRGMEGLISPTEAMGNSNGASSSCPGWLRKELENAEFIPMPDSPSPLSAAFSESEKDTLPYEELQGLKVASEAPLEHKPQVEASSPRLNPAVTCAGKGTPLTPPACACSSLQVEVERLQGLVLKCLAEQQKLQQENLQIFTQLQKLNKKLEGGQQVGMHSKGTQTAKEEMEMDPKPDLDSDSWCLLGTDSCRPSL", "description": "as §1"}, "PIP5K2A": {"target": "T2, PIP5K2A (Homo sapiens, UniProt P48426)", "T2 sequence (P48426 1-406)": "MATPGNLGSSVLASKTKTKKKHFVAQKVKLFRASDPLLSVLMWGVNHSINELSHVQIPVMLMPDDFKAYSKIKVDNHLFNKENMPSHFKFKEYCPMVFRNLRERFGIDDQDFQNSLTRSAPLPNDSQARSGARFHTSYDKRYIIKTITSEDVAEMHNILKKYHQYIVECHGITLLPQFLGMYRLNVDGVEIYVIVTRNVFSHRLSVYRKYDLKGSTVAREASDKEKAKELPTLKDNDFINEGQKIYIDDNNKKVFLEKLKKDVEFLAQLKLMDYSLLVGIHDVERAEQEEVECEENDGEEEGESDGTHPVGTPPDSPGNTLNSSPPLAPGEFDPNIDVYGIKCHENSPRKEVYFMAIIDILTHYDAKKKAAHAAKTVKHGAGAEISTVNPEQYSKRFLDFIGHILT", "description": "as §1"}, "PKN1": {"target": "PKN1 (Homo sapiens, UniProt Q16512)", "sequence (Q16512 whole entry)": "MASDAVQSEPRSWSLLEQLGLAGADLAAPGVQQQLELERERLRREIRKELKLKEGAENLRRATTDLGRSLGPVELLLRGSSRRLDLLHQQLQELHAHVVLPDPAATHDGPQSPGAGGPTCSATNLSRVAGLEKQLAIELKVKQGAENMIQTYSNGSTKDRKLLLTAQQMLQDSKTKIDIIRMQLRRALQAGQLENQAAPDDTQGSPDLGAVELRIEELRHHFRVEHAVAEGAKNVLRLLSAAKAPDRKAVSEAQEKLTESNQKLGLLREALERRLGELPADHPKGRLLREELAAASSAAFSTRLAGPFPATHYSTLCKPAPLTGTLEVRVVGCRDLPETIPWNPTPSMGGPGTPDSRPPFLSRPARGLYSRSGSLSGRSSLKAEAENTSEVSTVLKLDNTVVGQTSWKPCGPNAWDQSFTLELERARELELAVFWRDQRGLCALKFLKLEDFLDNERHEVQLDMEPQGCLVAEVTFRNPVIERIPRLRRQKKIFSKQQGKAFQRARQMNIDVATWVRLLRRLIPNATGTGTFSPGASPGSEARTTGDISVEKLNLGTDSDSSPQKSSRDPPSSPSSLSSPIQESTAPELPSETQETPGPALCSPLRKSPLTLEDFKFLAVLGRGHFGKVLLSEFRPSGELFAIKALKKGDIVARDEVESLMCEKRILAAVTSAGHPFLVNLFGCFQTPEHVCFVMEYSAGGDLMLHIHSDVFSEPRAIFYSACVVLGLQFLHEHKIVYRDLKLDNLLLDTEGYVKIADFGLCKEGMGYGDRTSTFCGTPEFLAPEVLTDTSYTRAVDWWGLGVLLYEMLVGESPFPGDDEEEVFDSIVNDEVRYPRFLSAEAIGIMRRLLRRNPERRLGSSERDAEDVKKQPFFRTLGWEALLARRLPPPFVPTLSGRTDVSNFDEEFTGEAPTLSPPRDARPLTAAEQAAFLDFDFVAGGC", "description": "as §1"}, "TBK1": {"target": "T3, TBK1 (Homo sapiens, UniProt Q9UHD2)", "T3 sequence (Q9UHD2 1-729)": "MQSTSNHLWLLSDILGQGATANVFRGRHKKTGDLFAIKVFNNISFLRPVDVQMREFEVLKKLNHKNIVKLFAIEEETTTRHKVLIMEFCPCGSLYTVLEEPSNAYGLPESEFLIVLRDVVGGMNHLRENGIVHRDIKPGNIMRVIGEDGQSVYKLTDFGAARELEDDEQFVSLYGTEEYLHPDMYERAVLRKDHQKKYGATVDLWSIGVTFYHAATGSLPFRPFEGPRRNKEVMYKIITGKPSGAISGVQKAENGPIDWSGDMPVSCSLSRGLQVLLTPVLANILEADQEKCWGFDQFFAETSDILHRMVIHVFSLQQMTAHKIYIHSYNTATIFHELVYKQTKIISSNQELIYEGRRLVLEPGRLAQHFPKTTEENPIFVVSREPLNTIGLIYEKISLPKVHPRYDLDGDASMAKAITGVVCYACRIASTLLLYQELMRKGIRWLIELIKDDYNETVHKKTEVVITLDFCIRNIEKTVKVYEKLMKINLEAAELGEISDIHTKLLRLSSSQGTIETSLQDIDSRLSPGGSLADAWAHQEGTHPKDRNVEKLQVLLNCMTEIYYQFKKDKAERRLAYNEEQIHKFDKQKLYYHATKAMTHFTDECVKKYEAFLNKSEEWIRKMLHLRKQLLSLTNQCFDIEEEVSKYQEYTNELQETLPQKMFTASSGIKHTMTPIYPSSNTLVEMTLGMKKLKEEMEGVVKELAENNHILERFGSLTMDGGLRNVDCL", "description": "as §1"}}, "data": [{"smiles": "CS(=O)(=O)Nc1ccccc1Nc1nc(Nc2cccc(OCCN)c2)ncc1Cl", "note": "[CZC31326, N-(2-(2-(3-(2-aminoethoxy)phenylamino)-5-chloropyrimidin-4-ylamino)phenyl)methanesulfonamide]", "values": [{"measurement": "inhibition at 10 µM", "setting": "CaMKK2", "result": 94.3, "unit": "%"}, {"measurement": "inhibition at 10 µM", "setting": "GSK3A", "result": 93.7, "unit": "%"}, {"measurement": "inhibition at 10 µM", "setting": "IRE1", "result": 91.8, "unit": "%"}, {"measurement": "inhibition at 10 µM", "setting": "LRRK2", "result": 85.2, "unit": "%"}, {"measurement": "inhibition at 10 µM", "setting": "NEK9", "result": 89, "unit": "%"}, {"measurement": "inhibition at 10 µM", "setting": "PIP5K2A", "result": 95, "unit": "%"}, {"measurement": "inhibition at 10 µM", "setting": "PKN1", "result": 93.7, "unit": "%"}, {"measurement": "inhibition at 10 µM", "setting": "TBK1", "result": 93.8, "unit": "%"}]}]}
